Experimental data as given in ChEMBL document CHEMBL1135104, “A novel type of nonsteroidal estrone sulfatase inhibitors” (Bioorg Med Chem Lett, 2002).

What was measured:
Steryl-sulfatase = target: T1, Steryl-sulfatase (Homo sapiens, UniProt P08842); experiment: Inhibitory activity againist Estrone sulfatase from MCF-7 cells ([…]); type: cell-based, MCF7
T1 sequence (P08842 whole entry): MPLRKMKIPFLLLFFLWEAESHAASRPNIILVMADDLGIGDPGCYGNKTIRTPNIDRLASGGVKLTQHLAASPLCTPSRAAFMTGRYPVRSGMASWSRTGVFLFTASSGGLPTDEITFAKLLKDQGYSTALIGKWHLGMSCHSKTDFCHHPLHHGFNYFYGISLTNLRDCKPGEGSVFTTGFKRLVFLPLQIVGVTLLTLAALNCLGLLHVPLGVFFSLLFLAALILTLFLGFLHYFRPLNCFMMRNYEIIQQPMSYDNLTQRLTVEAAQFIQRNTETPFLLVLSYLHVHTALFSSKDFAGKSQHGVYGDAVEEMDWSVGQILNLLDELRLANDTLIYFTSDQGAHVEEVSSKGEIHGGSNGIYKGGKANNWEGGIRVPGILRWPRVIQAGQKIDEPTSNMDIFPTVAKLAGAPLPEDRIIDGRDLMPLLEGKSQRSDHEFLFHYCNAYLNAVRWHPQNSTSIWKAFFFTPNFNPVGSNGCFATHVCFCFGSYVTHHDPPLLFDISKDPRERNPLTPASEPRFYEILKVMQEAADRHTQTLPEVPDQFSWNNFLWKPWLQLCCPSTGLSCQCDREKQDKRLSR

[1] = Acute toxicity in the hens fertile egg screening test (HEST).; design: species or system Gallus gallus; details: chicken

IC50 (Steryl-sulfatase) [µM] | Compound | LD50 [1] [mg/kg]
12 | COc1c2c(c(O)c3c1C(=O)c1c(cc(O)c(C)c1O)C3=O)-c1c(cc(/C=N/N=C(\S)Nc3ccc(C)cc3)c(C(=O)O)c1O)CC2 | –
16 | CC/N=C(\S)N/N=C/c1cc2c(c(O)c1C(=O)O)-c1c(O)c3c(c(OC)c1CC2)C(=O)c1c(cc(O)c(C)c1O)C3=O | –
6 | COc1c2c(c(O)c3c1C(=O)c1c(cc(O)c(C)c1O)C3=O)-c1c(cc(/C=N/N=C(\S)NN3CCCCC3)c(C(=O)O)c1O)CC2 | –
8 | COc1c2c(c(O)c3c1C(=O)c1c(cc(O)c(C)c1O)C3=O)-c1c(cc(/C=N/N=C(\S)N3CCCCC3)c(C(=O)O)c1O)CC2 | –
1.4 | COc1c2c(c(O)c3c1C(=O)c1c(cc(O)c(C)c1O)C3=O)-c1c(cc(/C=N/N=C(\S)N(C)C3CCCCC3)c(C(=O)O)c1O)CC2 | –
3.2 | COc1c2c(c(O)c3c1C(=O)c1c(cc(O)c(C)c1O)C3=O)-c1c(cc(/C=N/N=C(\S)NC3CCCC3)c(C(=O)O)c1O)CC2 | –
8 | CCCCCC/N=C(\S)N/N=C/c1cc2c(c(O)c1C(=O)O)-c1c(O)c3c(c(OC)c1CC2)C(=O)c1c(cc(O)c(C)c1O)C3=O | –
23 | COc1ccc(N/C(S)=N/N=C/c2cc3c(c(O)c2C(=O)O)-c2c(O)c4c(c(OC)c2CC3)C(=O)c2c(cc(O)c(C)c2O)C4=O)cc1 | –
50 | CCCCCCCCCCCC/N=C(\S)N/N=C/c1cc2c(c(O)c1C(=O)O)-c1c(O)c3c(c(OC)c1CC2)C(=O)c1c(cc(O)c(C)c1O)C3=O | –
25 | COc1c2c(c(O)c3c1C(=O)c1c(cc(O)c(C)c1O)C3=O)-c1c(cc(/C=N/N=C(\S)NC(C)(C)C)c(C(=O)O)c1O)CC2 | –
2.6 | Cc1cc(=O)oc2cc(OS(N)(=O)=O)ccc12 | –
7 | COc1c2c(c(O)c3c1C(=O)c1c(cc(O)c(C)c1O)C3=O)-c1c(cc(/C=N/NC(=O)NC3CCCCC3)c(C(=O)O)c1O)CC2 | –
22 | COc1c2c(c(O)c3c1C(=O)c1c(cc(O)c(C)c1O)C3=O)-c1c(cc(/C=N/N=C(\S)NC3CC3)c(C(=O)O)c1O)CC2 | –
9 | CCCCCCC/N=C(\S)N/N=C/c1cc2c(c(O)c1C(=O)O)-c1c(O)c3c(c(OC)c1CC2)C(=O)c1c(cc(O)c(C)c1O)C3=O | –
13 | CCCCC/N=C(\S)N/N=C/c1cc2c(c(O)c1C(=O)O)-c1c(O)c3c(c(OC)c1CC2)C(=O)c1c(cc(O)c(C)c1O)C3=O | –
> 100 | COc1c2c(c(O)c3c1C(=O)c1c(cc(O)c(C)c1O)C3=O)-c1c(cc(/C=N/N=C(\S)Nc3ccc(Cl)cc3)c(C(=O)O)c1O)CC2 | –
15 | COc1c2c(c(O)c3c1C(=O)c1c(cc(O)c(C)c1O)C3=O)-c1c(cc(/C=N/N=C(\S)NC3CCCCCCC3)c(C(=O)O)c1O)CC2 | –
> 100 | COc1c2c(c(O)c3c1C(=O)c1c(cc(O)c(C)c1O)C3=O)-c1c(cc(/C=N/N=C(/N)S)c(C(=O)O)c1O)CC2 | –
1.8 | COc1c2c(c(O)c3c1C(=O)c1c(cc(O)c(C)c1O)C3=O)-c1c(cc(/C=N/N=C(\S)NC3CCCCCC3)c(C(=O)O)c1O)CC2 | –
24 | COc1c2c(c(O)c3c1C(=O)c1c(cc(O)c(C)c1O)C3=O)-c1c(cc(/C=N/N=C(\S)NC(C)C)c(C(=O)O)c1O)CC2 | –
19 | CCCCCCCCC/N=C(\S)N/N=C/c1cc2c(c(O)c1C(=O)O)-c1c(O)c3c(c(OC)c1CC2)C(=O)c1c(cc(O)c(C)c1O)C3=O | –
4.8 | COc1c2c(c(O)c3c1C(=O)c1c(cc(O)c(C)c1O)C3=O)-c1c(cc(/C=N/N=C(\S)Nc3ccccc3)c(C(=O)O)c1O)CC2 | –
29 | CN/C(S)=N/N=C/c1cc2c(c(O)c1C(=O)O)-c1c(O)c3c(c(OC)c1CC2)C(=O)c1c(cc(O)c(C)c1O)C3=O | –
> 100 | COc1c2c(c(O)c3c1C(=O)c1c(cc(O)c(C)c1O)C3=O)-c1c(cc(/C=N/N=C(\S)Oc3ccccc3)c(C(=O)O)c1O)CC2 | –
20 | CCC/N=C(\S)N/N=C/c1cc2c(c(O)c1C(=O)O)-c1c(O)c3c(c(OC)c1CC2)C(=O)c1c(cc(O)c(C)c1O)C3=O | –
18 | CCC(CC)/N=C(\S)N/N=C/c1cc2c(c(O)c1C(=O)O)-c1c(O)c3c(c(OC)c1CC2)C(=O)c1c(cc(O)c(C)c1O)C3=O | –
4 | COc1c2c(c(O)c3c1C(=O)c1c(cc(O)c(C)c1O)C3=O)-c1c(cc(/C=N/N=C(\S)NC3CCC(C)CC3)c(C(=O)O)c1O)CC2 (centres undefined) | –
> 100 | COc1c2c(c(O)c3c1C(=O)c1c(cc(O)c(C)c1O)C3=O)-c1c(cc(/C=N/NC(=O)Nc3ccccc3)c(C(=O)O)c1O)CC2 | –
11 | COc1c2c(c(O)c3c1C(=O)c1c(cc(O)c(C)c1O)C3=O)-c1c(cc(/C=N/N=C(\S)NCC(C)C)c(C(=O)O)c1O)CC2 | –
6 | CCCC/N=C(\S)N/N=C/c1cc2c(c(O)c1C(=O)O)-c1c(O)c3c(c(OC)c1CC2)C(=O)c1c(cc(O)c(C)c1O)C3=O | –

Compound | IC50 (Steryl-sulfatase) [µM] | LD50 [1] [mg/kg]
COc1c2c(c(O)c3c1C(=O)c1c(cc(O)c(C)c1O)C3=O)-c1c(cc(/C=N/NC(=S)NC3CCCCC3)c(C(=O)O)c1O)CC2 [MHL CYCLOHEXYLTHIOSEMICARBAZONE] | 0.46 | > 50
COc1c2c(c(O)c3c1C(=O)c1c(cc(O)c(C)c1O)C3=O)-c1c(cc3c(c1O)C(=O)OC3O)CC2 (centres undefined) | 41 | –
COc1c2c(c(O)c3c1C(=O)c1c(cc(O)c(C)c1O)C3=O)-c1c(cc(/C=N/NC(=O)Oc3ccccc3)c(C(=O)O)c1O)CC2 | > 100 | –
